Legend:
[1] = Protection against shock caused by endotoxins (lipopolysaccharide B from S. Enteritidis); assay type: in vivo, male rats of Wistar type; settings: parenteral, 1 h before endotoxin, after 24 h
Excerpt: Endotoxin-induced shock has been produced according to the method reported by A. Bertelli and L. Donati, in the publication "The Influence of Some Enzymes and Enzymes Inhibitors in Shock", published in "SHOCK Biochemical,Pharmaceutical and Clinical Aspects"; A. Bertelli and N. Back Editors, Advances in Experimental Medicine and Biology; Volume 9, Plenum Press New York - London 1970, page 215. By way of comparison, there has been used a substance of well known therapeutical activity, specifically aprotinine, the commercial products marketed by Farbenfabriken Bayer, under the name "Trasylol". Male rats of Wistar type of 120 grams by weight ±10 have been used. The rats were previously stabilized for a period of ten days at a temperature of 21°±1° C. under a controlled diet and water "ad libitum". Twenty-four hours prior to the test, the animals were divided in groups of ten for the purpose of achieving randomization. Every single dose has been tried on six groups of animals.
Lipopolysaccharide B from S. Enteritidis (Difco Labs.) was used as the endotoxin. This substance was administered in the dose of 10 mg/kg by the endoperitoneal route, one hour after administration of the substance being administered by the parenteral route or in the form of a physiological solution in equal volume per kilogram to the animals being used as control.
The mortality in percent was determined in the animals being tested as compared with the controls after twenty-four hours.

[2] = Protection against pulmonary edema (adrenaline-induced acute edema of the lungs); assay type: in vivo, male albino rats of Wistar type; settings: parenteral, 15 min before adrenaline
Protocol: The method of A. M. Rothschild and A. Castania (Arch. Pharmacol., 295, 177 (1976)), has been used to develop the acute edema in the lungs and substances of known therapeutic activity have been used for comparison purpose.
For the test, male albino rats of Wistar type of average weight 250-350 grams, have been used for the test. The rats were stabilized for a period of ten days at a temperature of 21°±1° C., under conditions of controlled diet and water "ad libitum". Prior to the test, the animals were divided into groups of ten for the purpose of achieving good randomization. Each dose was tried on three groups of animals. The animals were anesthetized with pentobarbital in a dose of 30 mg/kg at the beginning of the test. After the animals were in complete narcosis, the following substances were administered by the parenteral route:
1. to the animals as controls, physiological saline solution in the amount of 1 ml/kg,
2. to the animals in the test, a solution of the substance being tested in physiological saline solution in the amount of 1 ml/kg in the doses reported hereinbelow in the table.
After a period of 15 minutes, for the purpose of determining the protective activity of the substances, adrenaline was administered in the amount of 16 γ/kg by the endovenous route and in physiological saline solution, for the purpose of causing acute edema.
After five minutes, the animals were killed by removal of the head, the lungs were removed and the weight of the lungs were determined. The results of the test are reported in Table 1 hereinbelow, together with the concentration of the substances and the relative inhibition of edema in percent.

[3] = Protection against anaphylactic shock (horse serum); assay type: in vivo, male albino guinea pigs; settings: parenteral, with horse serum challenge, after 12 h
Protocol: The anaphylactic shock has been induced according to the method of S. M. Feinberg, M. Pharmacol. Exp. Therapeut., 99, 195 (1950). There have been used male albino guinea pigs of average weight, 350±20 grams previously stabilized for a period of ten days at a temperature of 21°±1° C., under conditions of controlled diet and water "ad libitum". Three days before the beginning of the experiment, the animals are divided in groups of ten for the purpose of achieving good randomization. Each single dose has been tried on three groups of animals.
The sensitization has been carried out by administration of 1 ml/guinea pig through the endovenous route of horse serum, (whole serum, not treated with preservatives) diluted 1:10 in physiological saline solution. After 14 days, the solutions of the substances being tested and the samples of physiological solutions for use with the controls are administered through the parenteral route. Simultaneously, 1 ml/guinea pig of horse serum, undiluted is administered, this substance being used as the agent which prompts the anaphylaxis. The percentage of mortality is determined after 12 hours.

[4] = tested on: Fibrin Degradation Products; test: Inhibition of hyperfibrinolysis caused by urokinase (F.D.P., staphylococcal clumping test); assay type: in vivo, Wistar rats; settings: parenteral, 30 min before urokinase 2500 U.I/rat
Protocol: The induction of hyperfibrinolysis state is caused by administration of urokinase. The determination of the inhibition is carried out by determination of the F.D.P. value, that is Fibrin Degradation Products, according to the procedure of J. Hawiger et al, J. Lab. Clin. Med. 75, 93 (1970), by means of the staphylococcal clumping test (Boehringer Mannheim GmbH test).
There are used Wistar rats of 300 grams ±10 by weight previously stabilized for a period of ten days at a temperature of 21°±1° C., under conditions of controlled diet and water "ad libitum". Twenty-four hours prior to the beginning of the experiment, the animals are divided in groups of ten for the purpose of achieving randomization. Each individual dose is tried on three groups of animals.
At the beginning of the test, zero time, the compounds being tested are administered through the parenteral route. In the case of the control animals, at the same time an equal volume of a physiological saline solution is administered except that some blood is removed by means of a cardiac puncture, for the purpose of determining the basal fibrinolytic activity. After 30 minutes, human urokinase (the composition marketed by Ukidan-Serono) is administered intravenously in the amount of 2500 U.I/rat. After an additional period of ten minutes, blood is removed by means of a cardiac puncture for the final determination of F.D.P., a determination which is expressed in […].

Aprotinin
% MORTALITY ([1]; dose 1000 U.I.K./kg): 50.0% | % MORTALITY ([1]; dose 3000 U.I.K./kg): 65.0% | % MORTALITY ([1]; dose 10000 U.I.K./kg): 65.0% | % MORTALITY ([1]; dose 100000 U.I.K./kg): 93.3% | % INHIBITION OF EDEMA ([2]; dose 30 U.I.K./kg): 17.3% | % INHIBITION OF EDEMA ([2]; dose 100 U.I.K./kg): 36.5% | % INHIBITION OF EDEMA ([2]; dose 300 U.I.K./kg): 54.5% | % INHIBITION OF EDEMA ([2]; dose 1000 U.I.K./kg): 42.7% | % MORTALITY ([3]; dose 3000 U.I.K./kg): 40% | % MORTALITY ([3]; dose 10000 U.I.K./kg): 55% | % MORTALITY ([3]; dose 100000 U.I.K./kg): 80% | F.D.P. ([4]; dose 1000 U.I.K./kg): 0.34 milliliters | F.D.P. ([4]; dose 3000 U.I.K./kg): 0.29 milliliters | F.D.P. ([4]; dose 10000 U.I.K./kg): 0.30 milliliters

From patent US4405643A, “Treatment of acute pulmonary edema with arginine esters” (Italfarmaco S.p.A., priority 1979, dated 1983)
